Assay results published in patent publication US10582709B2, “Butyrolactones as herbicides” (FMC Corporation, priority 2015, dated 2020).

Assays:
Format in all cases: in vivo
[1] = test system: barnyardgrass (Echinochloa crus-galli); test: Test B flooded paddy test, barnyardgrass; details: applied to paddy water at 2-leaf stage, 13 to 15 d, scale 0 no effect to 100 complete control
In short: (§1)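 Plants at the 2-leaf stage were flooded to 3 cm above soil, and test compounds were applied directly into the paddy water, which was held at that depth throughout. After 13 to 15 d in a greenhouse, injury was rated visually against untreated controls on a 0–100 scale (0 no effect, 100 complete control).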

[2] = test system: ducksalad (Heteranthera limosa); test: Test B flooded paddy test, ducksalad; details: applied to paddy water at 2-leaf stage, 13 to 15 d, scale 0 no effect to 100 complete control
In short: as §1

rice (Oryza sativa) = test: Test B flooded paddy test, rice; details: applied to paddy water at 2-leaf stage, 13 to 15 d, scale 0 no effect to 100 complete control
In short: as §1

[3] = test system: sedge, umbrella (small-flower umbrella sedge, Cyperus difformis); test: Test B flooded paddy test, umbrella sedge; details: applied to paddy water at 2-leaf stage, 13 to 15 d, scale 0 no effect to 100 complete control
In short: as §1

[4] = test system: barnyardgrass (Echinochloa crus-galli); test: Test A preemergence, barnyardgrass; details: visual rating after approx. 10 d, 0 to 100 scale, 0 no effect, 100 complete control
In short: (§2)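 Seeds in loam–sand blend received a preemergence directed soil spray; postemergence sprays went on plants 2–10 cm tall at the one- to two-leaf stage. Compounds were in non-phytotoxic solvent with surfactant. After ~10 d in greenhouse, injury was rated visually versus untreated controls, 0 (no effect) to 100 (complete control).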

[5] = test system: crabgrass (large crabgrass, Digitaria sanguinalis); test: Test A preemergence, crabgrass; details: visual rating after approx. 10 d, 0 to 100 scale, 0 no effect, 100 complete control
Text: (§3) Seeds of plant species selected from barnyardgrass (Echinochloa crus-galli), crabgrass (large crabgrass, Digitaria sanguinalis), kochia (Kochia scoparia), ragweed (common ragweed, Ambrosia elatior), morningglory (Ipomoea spp.), velvetleaf (Abutilon theophrasti), ryegrass, Italian (Italian ryegrass, Lolium multiflorum), foxtail, giant (giant foxtail, Setaria faberii), wheat (Triticum aestivum), corn (Zea mays), and pigweed (Amaranthus retroflexus), were planted into a blend of loam soil and sand and treated preemergence with a directed soil spray using test chemicals formulated in a non-phytotoxic solvent mixture which included a surfactant. At the same time, plants selected from these crop and weed species and also blackgrass (Alopecurus myosuroides), and galium (catchweed bedstraw, Galium aparine), were planted in pots containing the same blend of loam soil and sand and treated with postemergence applications of test chemicals formulated in the same manner. Plants ranged in height from 2 to 10 cm and were in the one- to two-leaf stage for the postemergence treatment. Treated plants and untreated controls were maintained in a greenhouse for approximately 10 d, after which time all treated plants were compared to untreated controls and visually evaluated for injury. Plant response ratings, summarized in Table A, are based on a 0 to 100 scale where 0 is no effect and 100 is complete control. A dash (-) response means no test result.

[6] = test system: morningglory (Ipomoea spp.); test: Test A preemergence, morningglory; details: visual rating after approx. 10 d, 0 to 100 scale, 0 no effect, 100 complete control
Text: as §3

[7] = test system: velvetleaf (Abutilon theophrasti); test: Test A preemergence, velvetleaf; details: visual rating after approx. 10 d, 0 to 100 scale, 0 no effect, 100 complete control
Text: as §3

[8] = test system: foxtail, giant (giant foxtail, Setaria faberii); test: Test A preemergence, giant foxtail; details: visual rating after approx. 10 d, 0 to 100 scale, 0 no effect, 100 complete control
In short: as §2

[9] = test system: wheat (Triticum aestivum); test: Test A preemergence, wheat; details: visual rating after approx. 10 d, 0 to 100 scale, 0 no effect, 100 complete control
Text: as §3

corn (Zea mays) [10] = test: Test A preemergence, corn; details: visual rating after approx. 10 d, 0 to 100 scale, 0 no effect, 100 complete control
Text: as §3

[11] = test system: pigweed (Amaranthus retroflexus); test: Test A preemergence, pigweed; details: visual rating after approx. 10 d, 0 to 100 scale, 0 no effect, 100 complete control
In short: as §2

[12] = test system: barnyardgrass (Echinochloa crus-galli); test: Test A postemergence, barnyardgrass; details: visual rating after approx. 10 d, 0 to 100 scale, 0 no effect, 100 complete control
In short: as §2

[13] = test system: crabgrass (large crabgrass, Digitaria sanguinalis); test: Test A postemergence, crabgrass; details: visual rating after approx. 10 d, 0 to 100 scale, 0 no effect, 100 complete control
Text: as §3

[14] = test system: morningglory (Ipomoea spp.); test: Test A postemergence, morningglory; details: visual rating after approx. 10 d, 0 to 100 scale, 0 no effect, 100 complete control
Text: as §3

[15] = test system: velvetleaf (Abutilon theophrasti); test: Test A postemergence, velvetleaf; details: visual rating after approx. 10 d, 0 to 100 scale, 0 no effect, 100 complete control
Text: as §3

[16] = test system: foxtail, giant (giant foxtail, Setaria faberii); test: Test A postemergence, giant foxtail; details: visual rating after approx. 10 d, 0 to 100 scale, 0 no effect, 100 complete control
In short: as §2

[17] = test system: wheat (Triticum aestivum); test: Test A postemergence, wheat; details: visual rating after approx. 10 d, 0 to 100 scale, 0 no effect, 100 complete control
In short: as §2

[18] = test system: pigweed (Amaranthus retroflexus); test: Test A postemergence, pigweed; details: visual rating after approx. 10 d, 0 to 100 scale, 0 no effect, 100 complete control
In short: as §2

kochia (Kochia scoparia) [19] = test: Test A preemergence, kochia; details: visual rating after approx. 10 d, 0 to 100 scale, 0 no effect, 100 complete control
In short: as §2

[20] = test system: ragweed (common ragweed, Ambrosia elatior); test: Test A preemergence, ragweed; details: visual rating after approx. 10 d, 0 to 100 scale, 0 no effect, 100 complete control
In short: as §2

[21] = test system: ryegrass, Italian (Italian ryegrass, Lolium multiflorum); test: Test A preemergence, Italian ryegrass; details: visual rating after approx. 10 d, 0 to 100 scale, 0 no effect, 100 complete control
In short: as §2

kochia (Kochia scoparia) [22] = test: Test A postemergence, kochia; details: visual rating after approx. 10 d, 0 to 100 scale, 0 no effect, 100 complete control
In short: as §2

[23] = test system: ragweed (common ragweed, Ambrosia elatior); test: Test A postemergence, ragweed; details: visual rating after approx. 10 d, 0 to 100 scale, 0 no effect, 100 complete control
In short: as §2

[24] = test system: ryegrass, Italian (Italian ryegrass, Lolium multiflorum); test: Test A postemergence, Italian ryegrass; details: visual rating after approx. 10 d, 0 to 100 scale, 0 no effect, 100 complete control
In short: as §2

corn (Zea mays) [25] = test: Test A postemergence, corn; details: visual rating after approx. 10 d, 0 to 100 scale, 0 no effect, 100 complete control
In short: as §2

[26] = test system: blackgrass (Alopecurus myosuroides); test: Test A postemergence, blackgrass; details: visual rating after approx. 10 d, 0 to 100 scale, 0 no effect, 100 complete control
In short: as §2

[27] = test system: galium (catchweed bedstraw, Galium aparine); test: Test A postemergence, galium; details: visual rating after approx. 10 d, 0 to 100 scale, 0 no effect, 100 complete control
In short: as §2

With `O=C(Nc1ccccc1Cl)C1C(=O)OCC1c1ccc(F)c(F)c1` (racemic) [Compound 3] the “Plant response rating, Flood, Barnyardgrass” value ([1]; 250 g ai/ha) was 0, the “Plant response rating, Flood, Ducksalad” value ([2]; 250 g ai/ha) was 0 and the “Plant response rating, Flood, Rice” value (rice (Oryza sativa); 250 g ai/ha) was 0. The “Plant response rating, Flood, Sedge, Umbrella” value ([3]; 250 g ai/ha) was 0, the “Plant response rating, Barnyardgrass” value ([4]; 125 g ai/ha) was 0 and the “Plant response rating, Barnyardgrass” value ([4]; 500 g ai/ha) was 30. The “Plant response rating, Crabgrass” value ([5]; 125 g ai/ha) was 40, the “Plant response rating, Crabgrass” value ([5]; 500 g ai/ha) was 50 and the “Plant response rating, Morningglory” value ([6]; 125 g ai/ha) was 0. For the same compound, the “Plant response rating, Morningglory” value ([6]; 500 g ai/ha) was 0, the “Plant response rating, Velvetleaf” value ([7]; 125 g ai/ha) was 0 and the “Plant response rating, Velvetleaf” value ([7]; 500 g ai/ha) was 0. The “Plant response rating, Foxtail, Giant” value ([8]; 125 g ai/ha) was 70, the “Plant response rating, Foxtail, Giant” value ([8]; 500 g ai/ha) was 80 and the “Plant response rating, Wheat” value ([9]; 125 g ai/ha) was 0. For the same compound, the “Plant response rating, Wheat” value ([9]; 500 g ai/ha) was 0, the “Plant response rating, Corn” value (corn (Zea mays) [10]; 125 g ai/ha) was 0 and the “Plant response rating, Corn” value (corn (Zea mays) [10]; 500 g ai/ha) was 0. The “Plant response rating, Pigweed” value ([11]; 125 g ai/ha) was 0, the “Plant response rating, Pigweed” value ([11]; 500 g ai/ha) was 0 and the “Plant response rating, Barnyardgrass” value ([12]; 125 g ai/ha) was 0. For the same compound, the “Plant response rating, Barnyardgrass” value ([12]; 500 g ai/ha) was 0, the “Plant response rating, Crabgrass” value ([13]; 125 g ai/ha) was 60 and the “Plant response rating, Crabgrass” value ([13]; 500 g ai/ha) was 70. The “Plant response rating, Morningglory” value ([14]; 125 g ai/ha) was 0, the “Plant response rating, Morningglory” value ([14]; 500 g ai/ha) was 0 and the “Plant response rating, Velvetleaf” value ([15]; 125 g ai/ha) was 0. For the same compound, the “Plant response rating, Velvetleaf” value ([15]; 500 g ai/ha) was 0, the “Plant response rating, Foxtail, Giant” value ([16]; 125 g ai/ha) was 50 and the “Plant response rating, Foxtail, Giant” value ([16]; 500 g ai/ha) was 60. For the same compound, the “Plant response rating, Wheat” value ([17]; 125 g ai/ha) was 0, the “Plant response rating, Wheat” value ([17]; 500 g ai/ha) was 0 and the “Plant response rating, Pigweed” value ([18]; 125 g ai/ha) was 0. The “Plant response rating, Pigweed” value ([18]; 500 g ai/ha) was 0.
For `O=C(Nc1cccc(F)c1C(F)(F)F)C1C(=O)OCC1c1cccc(C(F)(F)F)c1` (racemic) [Compound 13], the “Plant response rating, Flood, Barnyardgrass” value ([1]; 500 g ai/ha) was 0, the “Plant response rating, Flood, Ducksalad” value ([2]; 500 g ai/ha) was 0 and the “Plant response rating, Flood, Rice” value (rice (Oryza sativa); 500 g ai/ha) was 0. The “Plant response rating, Flood, Sedge, Umbrella” value ([3]; 500 g ai/ha) was 0, the “Plant response rating, Barnyardgrass” value ([4]; 125 g ai/ha) was 0 and the “Plant response rating, Barnyardgrass” value ([4]; 500 g ai/ha) was 0. For the same compound, the “Plant response rating, Kochia” value (kochia (Kochia scoparia) [19]; 125 g ai/ha) was 0, the “Plant response rating, Kochia” value (kochia (Kochia scoparia) [19]; 500 g ai/ha) was 0 and the “Plant response rating, Ragweed” value ([20]; 125 g ai/ha) was 0. For the same compound, the “Plant response rating, Ragweed” value ([20]; 500 g ai/ha) was 0, the “Plant response rating, Ryegrass, Italian” value ([21]; 125 g ai/ha) was 0 and the “Plant response rating, Ryegrass, Italian” value ([21]; 500 g ai/ha) was 0. For the same compound, the “Plant response rating, Foxtail, Giant” value ([8]; 125 g ai/ha) was 40, the “Plant response rating, Foxtail, Giant” value ([8]; 500 g ai/ha) was 70 and the “Plant response rating, Pigweed” value ([11]; 125 g ai/ha) was 0. For the same compound, the “Plant response rating, Pigweed” value ([11]; 500 g ai/ha) was 0, the “Plant response rating, Barnyardgrass” value ([12]; 125 g ai/ha) was 0 and the “Plant response rating, Barnyardgrass” value ([12]; 500 g ai/ha) was 0. For the same compound, the “Plant response rating, Kochia” value (kochia (Kochia scoparia) [22]; 125 g ai/ha) was 0, the “Plant response rating, Kochia” value (kochia (Kochia scoparia) [22]; 500 g ai/ha) was 0 and the “Plant response rating, Ragweed” value ([23]; 125 g ai/ha) was 0. The “Plant response rating, Ragweed” value ([23]; 500 g ai/ha) was 0, the “Plant response rating, Ryegrass, Italian” value ([24]; 125 g ai/ha) was 0 and the “Plant response rating, Ryegrass, Italian” value ([24]; 500 g ai/ha) was 0. For the same compound, the “Plant response rating, Foxtail, Giant” value ([16]; 125 g ai/ha) was 20, the “Plant response rating, Foxtail, Giant” value ([16]; 500 g ai/ha) was 40 and the “Plant response rating, Wheat” value ([17]; 125 g ai/ha) was 0. The “Plant response rating, Wheat” value ([17]; 500 g ai/ha) was 0, the “Plant response rating, Corn” value (corn (Zea mays) [25]; 125 g ai/ha) was 0 and the “Plant response rating, Corn” value (corn (Zea mays) [25]; 500 g ai/ha) was 0. The “Plant response rating, Pigweed” value ([18]; 125 g ai/ha) was 0, the “Plant response rating, Pigweed” value ([18]; 500 g ai/ha) was 0 and the “Plant response rating, Blackgrass” value ([26]; 125 g ai/ha) was 0. The “Plant response rating, Blackgrass” value ([26]; 500 g ai/ha) was 0, the “Plant response rating, Galium” value ([27]; 125 g ai/ha) was 0 and the “Plant response rating, Galium” value ([27]; 500 g ai/ha) was 0.
